How the values were obtained:
Assay type in all cases: cell-based, human
HeLa cells [1] = assay: Crystal Violet assay of siRNA-treated cells; details: 48 hours
Procedure: (§1) For siRNA experiments to assess effects on BUBR1 expression levels by immunoblotting and effects on tumour cell proliferation and viability using the YO-PRO assay (FIGS. 7, 9,10 and 11), and Crystal Violet Assay (FIGS. 12 and 13), cells were seeded in 6 well plates at an appropriate density: HeLa (cervical cancer cells; ATCC reference CCL-2) 2.5E+04 (for YO-PRO) or 4.0E+04 (for Crystal Violet) cells per well, H460 (NSCLC cells; ATCC reference HTB-177) 5.0E+04 cells per well, MCF-7 (breast carcinoma cells; ATCC reference HTB-22) 2.4E+05 cells per well, Panc1 (pancreatic cancer cells, ATCC reference CRL-1469) and HCT116 (colon cancer cells, ATCC reference CCI-247) 8E+04 cells per well, and were cultured at 37° C. and 5% CO2 in RPMI-1640 or DMEM containing 10% FCS (complete medium). Cells were transfected the following day with a mixture of four BUBR1 siRNAs (ON-Target-plus Smartpool L-004101, Dharmacon, see sequence information below), the four individual BUBR1 siRNAs (ON-Target-plus Set of four upgrade LU-004101) or non-targeting control siRNAs (ON-Target-plus non-targeting pool D001810, Dharmacon), using Hiperfect (Qiagen) for H460, Panc1 and HCT116 or Lipofectamine2000 (Invitrogen) for HeLa and MCF-7 according to manufacturer's instructions. The final concentration of siRNA was 10 nM (H460) or 20-30 nM (HeLa) or 20 nM (MCF-7, Panc1, HCT116). Cells were maintained at 37° C. and 5% CO2 for 24 hours before compound treatment for 48 hours, followed by YO-PRO analysis, Crystal Violet Assay or extraction for immunoblot assay. ON-Target-plus siRNAs are dual-strand siRNAs, chemically modified to improve specificity for the desired target.
(§2) Cells were incubated for 48 hours with DMSO or BAL27862 diluted in complete medium (final concentration DMSO 0.5%). After medium was removed, cells were fixed and stained by adding 1 ml Crystal Violet Staining (0.2% Crystal Violet in 50% Methanol) per well. Plates were incubated for 1 hour at room temperature. Subsequently the stain was decanted and plates were washed 4 times with double-distilled water. Plates were air-dried for several hours. Stain was dissolved by adding 2 ml buffer (0.1 M Tris pH 7.5, 0.2% SDS, 20% Ethanol) per well and shaking the plates. Absorbance at 590 nm was measured using a SpectraMax M2^e plate reader (Molecular Devices). In order to subtract starting cell numbers, a control plate was fixed and stained on the same day the compound was added. Final results were calculated by subtracting the starting cell absorbance from that of control (DMSO) or compound treated cells. Values lower than zero indicate cell death.

HCT116 cells = assay: Crystal Violet assay of siRNA-treated cells; details: BUBR1 siRNA pool, 50 nM, 48 hours
Procedure: as §1, §2

Panc1 cells = assay: Crystal Violet assay of siRNA-treated cells; details: BUBR1 siRNA pool, 30 nM, 48 hours
Procedure: as §1, §2

GXF97 = assay: Colony outgrowth assay, patient-derived tumour xenograft cells; parameters: key: S: BAL27862-sensitive tumour cells have IC70 values in the low nanomolar range; R: BAL27862-resistant tumour cells are defined by IC70 values >600 nanomolar; details: Gastric
Procedure: (§3) Single cell suspensions of patient-derived tumour xenografts (maintained in nude mice) were prepared. For colony outgrowth assays, cells were plated in soft agar in 24-well plates according to the assay introduced by Hamburger & Salmon (Primary bioassay of human tumour stem cells, Science, 1977, 197:461-463). 2.0E+04-6.0E+04 cells in 0.2 mL medium containing 0.4% agar were plated out on a bottom layer of 0.75% agar. Test compounds were applied in 0.2 mL culture medium. Every 24-well plate contained untreated controls and samples in triplicates. Cultures were incubated at 37° C. and 7.5% CO2 for 5-28 days. 24 hours prior to analysis, vital colonies were stained with a solution of metabolizable tetrazolium salt (Alley M C et al, Life Sci. 1982, 31:3071-3078) and were counted with an automatic image analysis system (Omnicon 3600, Biosys GmbH).
(§4) Relative drug effects were expressed by the ratio of the mean number of colonies in the treated wells and the control wells. IC70-values were determined by plotting compound concentrations versus relative colony counts.

LXFL529 = assay: as above; parameters: key: S: BAL27862-sensitive tumour cells have IC70 values in the low nanomolar range; R: BAL27862-resistant tumour cells are defined by IC70 values >600 nanomolar; details: Lung
Procedure: as §3, §4

GXF251 = assay: as above; parameters: key: S: BAL27862-sensitive tumour cells have IC70 values in the low nanomolar range; R: BAL27862-resistant tumour cells are defined by IC70 values >600 nanomolar; details: Gastric
Procedure: as §3, §4

LXFA629 = assay: as above; parameters: key: S: BAL27862-sensitive tumour cells have IC70 values in the low nanomolar range; R: BAL27862-resistant tumour cells are defined by IC70 values >600 nanomolar; details: Lung
Procedure: as §3, §4

HeLa cells [2] = assay: BUBR1 siRNA pool, tumour cell phenotype and cell number by immunostaining; details: 50 nM BAL27862, 24 hours, 48 hours after siRNA
Procedure: In order to show BUBR1 is a biomarker of resistance, siRNA experiments were performed. For siRNA experiments to assess effects on tumour cell phenotype and numbers (FIG. 8), HeLa (ATCC reference CCL-2) cervical cancer cells were cultured at 37° C. and 5% CO2 in DMEM with 10% FCS (Invitrogen). 1000 HeLa cells per well were seeded into black 384 well multititer plates (BD Falcon). Cells were reversely transfected with 20 nM non-targeting control siRNA (ON-Target-plus non-targeting pool D001810, Dharmacon) or a mixture of four BUBR1 siRNAs (ON-Target-plus Smartpool L-004101, Dharmacon, see sequence information below) using Dharmafect1 (Dharmacon, Thermo) transfection reagent. 48 hours after cell seeding and siRNA transfection, one replicate pair of siRNA clones was treated with BAL27862 (50 nM, 0.1% DMSO) and another replicate pair with control solution (0.1% DMSO) for 24 hours. […] Based on the immunostaining, the morphology of treated cells was analysed using a multiparametric approach (BD Pathway 855 fluorescence microscope; 20× objective) with appropriate software. The number of cells per well was also calculated based on Hoe33342 staining of nuclei. […]

N#CCCNc1nonc1-c1nc2ccccc2n1CC(=O)c1ccc(N)cc1 [BAL27862, 3-(4-{1-[2-(4-Amino-phenyl)-2-oxo-ethyl]-1H-benzoimidazol-2-yl}-furazan-3-ylamino)-propionitrile]
cellular proliferation with reduced BUBR1 expression (HeLa cells [1]; BUBR1 siRNA pool, 50 nM): same effects were again observed | effect on cellular proliferation after individual BUBR1 siRNAs (HeLa cells [1]; siRNA #1-4, 50 nM): decreased the effect of BAL27862 on cellular proliferation | cellular proliferation with reduced BUBR1 expression (HCT116 cells): same effects were again observed | cellular proliferation with reduced BUBR1 expression (Panc1 cells): same effects were again observed | Sensitive (S)/Resistant (R), by IC70 in colony outgrowth (GXF97): R (BAL27862-resistant tumour cells are defined by IC70 values >600 nanomolar) | Sensitive (S)/Resistant (R), by IC70 in colony outgrowth (LXFL529): S | Sensitive (S)/Resistant (R), by IC70 in colony outgrowth (GXF251): S | Sensitive (S)/Resistant (R), by IC70 in colony outgrowth (LXFA629): R (BAL27862-resistant tumour cells are defined by IC70 values >600 nanomolar) | HeLa cell number and fraction of cells with a normal phenotype after pooled BUBR1 siRNA (HeLa cells [2]): BUBR1 was required for optimal effects

— patent US9970938B2, “Use of BUBR1 as a biomarker of drug response to furazanobenzimidazoles” (Basilea Pharmaceutica AG, priority 2011, dated 2018)
